# Results as given in patent publication EP4650353A1 (Shanghai Institute of Materia Medica, Chinese Academy of …, priority 2023, dated 2024).
# Where two headings read alike, the source gives them in different places.
# Assays:
# hERG potassium channels = hERG potassium channels (Homo sapiens, UniProt Q12809); assay: cell-based
# Experimental: CHO cells expressing hERG protein were cultured in 175 cm^2 culture flasks. When the cell density grew to 60-80%, the culture medium was removed, the cells were washed once with 7 mL PBS, and then 3 mL Detachin was added for digestion. After digestion was complete, 7 mL of culture medium was added to neutralize, then centrifuged. The supernatant was aspirated, and 5 mL of culture medium was added to resuspend to ensure that the cell density is 2-5×10^6/mL.
# Both the single-cell high-impedance sealing and whole-cell mode formation processes were automatically completed by the Qpatch instrument. After obtaining the whole-cell recording mode, the cell was clamped at -80 mV. Before a 5-second +20 mV depolarizing stimulus was given, a 50-ms -50 mV pre-voltage was given, and then the cell was repolarized to -50 mV for 5 seconds and then returned to -80 mV. This voltage stimulation was applied every 15 seconds. After recording for 2 minutes, the extracellular solution was recorded for 2 minutes. Then the drug administration process began. The compound concentration started from the lowest tested concentration. Each tested concentration was given for 2 minutes. […] At least three cells were tested for each concentration (n≥3).
# The compound stock solution was diluted with extracellular fluid, 5 µL of 20 mM compound stock solution was added to 2495 µL extracellular fluid, diluted 500 times to 40 µM, and then serially diluted 3 times in extracellular fluid containing 0.2% DMSO (v/v) to obtain the final concentration to be tested.
# The experimental data were analyzed by XLFit software.
# human GLP-1 receptor = molecular target: T1, human GLP-1 receptor (Homo sapiens, UniProt P43220); assay: GLP-1 receptor-mediated agonist activity: cAMP level in hGLP-1R/HEK293 cell line (HTRF); assay type: cell-based
# T1 construct: HA (N); expressed in transfected cells
# [1] = cAMP levels in hGLP-1R/HEK293 cell line, Table 1, read-out: determined EC50
# [2] = cAMP levels of the hGLP-1R/HEK293 cell line, Table 2, comparison with reference compounds, read-out: EC50
# Sequence of hERG potassium channels (Q12809 whole entry): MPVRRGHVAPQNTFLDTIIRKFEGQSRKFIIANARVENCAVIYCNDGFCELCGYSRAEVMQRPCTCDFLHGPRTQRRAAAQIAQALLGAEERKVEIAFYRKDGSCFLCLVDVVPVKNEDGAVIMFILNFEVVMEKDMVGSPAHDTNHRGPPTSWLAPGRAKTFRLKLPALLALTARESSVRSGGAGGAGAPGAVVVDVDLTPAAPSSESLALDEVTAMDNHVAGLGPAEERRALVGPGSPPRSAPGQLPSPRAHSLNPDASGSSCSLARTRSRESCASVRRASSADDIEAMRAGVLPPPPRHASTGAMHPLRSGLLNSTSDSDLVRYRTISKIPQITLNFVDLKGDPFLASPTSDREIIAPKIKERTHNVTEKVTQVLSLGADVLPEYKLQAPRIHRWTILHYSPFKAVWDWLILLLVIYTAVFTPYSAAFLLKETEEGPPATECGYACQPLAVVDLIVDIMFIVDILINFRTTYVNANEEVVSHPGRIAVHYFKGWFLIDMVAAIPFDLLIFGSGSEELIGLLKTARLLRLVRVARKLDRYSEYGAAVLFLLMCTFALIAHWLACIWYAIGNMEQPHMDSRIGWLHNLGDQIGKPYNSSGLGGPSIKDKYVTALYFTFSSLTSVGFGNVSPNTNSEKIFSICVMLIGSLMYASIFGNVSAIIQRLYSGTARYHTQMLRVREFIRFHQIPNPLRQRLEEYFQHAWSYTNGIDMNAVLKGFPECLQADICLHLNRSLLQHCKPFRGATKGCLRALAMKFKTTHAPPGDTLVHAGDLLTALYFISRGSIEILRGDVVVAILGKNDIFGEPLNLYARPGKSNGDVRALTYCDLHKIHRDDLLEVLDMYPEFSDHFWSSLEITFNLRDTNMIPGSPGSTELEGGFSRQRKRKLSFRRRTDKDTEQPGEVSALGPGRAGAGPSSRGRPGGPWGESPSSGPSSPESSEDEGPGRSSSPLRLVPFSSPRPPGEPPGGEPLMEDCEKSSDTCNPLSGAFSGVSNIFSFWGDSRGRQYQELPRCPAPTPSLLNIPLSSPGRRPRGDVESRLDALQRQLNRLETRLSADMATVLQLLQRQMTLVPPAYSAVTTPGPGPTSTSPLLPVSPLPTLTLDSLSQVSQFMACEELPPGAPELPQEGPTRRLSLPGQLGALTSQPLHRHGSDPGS
# T1 sequence (P43220 24-463): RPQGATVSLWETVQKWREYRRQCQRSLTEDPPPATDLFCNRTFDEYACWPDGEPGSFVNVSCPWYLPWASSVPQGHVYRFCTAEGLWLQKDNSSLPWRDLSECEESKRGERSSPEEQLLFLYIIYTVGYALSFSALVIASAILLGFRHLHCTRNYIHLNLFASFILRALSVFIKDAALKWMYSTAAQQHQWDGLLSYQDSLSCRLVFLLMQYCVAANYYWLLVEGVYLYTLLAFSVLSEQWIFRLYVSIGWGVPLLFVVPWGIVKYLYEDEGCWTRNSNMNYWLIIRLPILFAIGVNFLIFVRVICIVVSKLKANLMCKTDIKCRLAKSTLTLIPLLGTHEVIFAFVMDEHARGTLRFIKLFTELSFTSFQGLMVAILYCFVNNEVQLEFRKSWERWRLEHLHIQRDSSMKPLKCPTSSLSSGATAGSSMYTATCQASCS
SMILES,EC50 (human GLP-1 receptor; [1]),EC50 (human GLP-1 receptor; [2]),IC50 (hERG potassium channels)
"CCOc1cc(C(=O)O)cc2c1nc(CN1CCN(c3cccc(OCc4ccc(C#N)cc4F)n3)C=N1)n2C[C@@H]1CCO1 [Compound 9, (S)-2-((4-(6-((4-cyano-2-fluorobenzyl)oxy)pyridin-2-yl)-5,6-dihydro-1,2,4-triazin-1(4H)-yl)methyl)-4-ethoxy-1-(oxetan-2-ylmethyl)-1H-benzo[d]imidazole-6-carboxylic acid]",0.0012 nM,,> 40000 nM
"COc1cc(C(=O)O)cc2c1nc(CN1CCN(c3cccc(OCc4ccc(Cl)cc4F)n3)C=N1)n2C[C@@H]1CCO1 [Compound 17, (S)-2-((4-(6-((4-chloro-2-fluorobenzyl)oxy)pyridin-2-yl)-5,6-dihydro-1,2,4-triazin-1(4H)-yl)methyl)-4-methoxy-1-(oxetan-2-ylmethyl)-1H-benzo[d]imidazole-6-carboxylic acid]",0.0047 nM,,> 40000 nM
"COc1cc(C(F)(F)F)ccc1COc1cccc(N2C=NN(Cc3nc4c(OC)cc(C(=O)O)cc4n3C[C@@H]3CCO3)CC2)n1 [Compound 23, (S)-4-methoxy-2-((4-(6-((2-methoxy-4-(trifluoromethyl)benzyl)oxy)pyridin-2-yl)-5,6-dihydro-1,2,4-triazin-1(4H)-yl)methyl)-1-(oxetan-2-ylmethyl)-1H-benzo[d]imidazole-6-carboxylic acid]",0.0015 nM,,> 40000 nM
"[2H]C([2H])([2H])Oc1cc(C(=O)O)cc2c1nc(CN1CCC(c3cccc4c3OC(C)(c3ccc(Cl)cn3)O4)CC1)n2C[C@@H]1CCO1 (stereo partly drawn) [Compound 61, 2-((4-(2-(5-chloropyridin-2-yl)-2-methylbenzo[d][1,3]dioxol-4-yl)piperidin-1-yl)methyl)-4-(methoxy-d3)-1-(((S)-oxetan-2-yl)methyl)-1H-benzo[d]imidazole-6-carboxylic acid]",0.0103 nM,,> 40000 nM
"COc1cc(C(=O)O)cc2c1nc(CN1CCN(c3cccc4c3OC(C)(c3ccc(Cl)cc3F)O4)C=N1)n2C[C@@H]1CCO1 (stereo partly drawn) [Compound 63, 2-((4-(2-(4-chloro-2-fluorophenyl)-2-methylbenzo[d][1,3]dioxol-4-yl)-5,6-dihydro-1,2,4-triazin-1(4H)-yl)methyl)-4-methoxy-1-(((S)-oxetan-2-yl)methyl)-1H-benzo[d]imidazole-6-carboxylic acid]",0.0152 nM,,> 40000 nM
"[2H]C([2H])([2H])Oc1cc(C(=O)O)cc2c1nc(CN1CCC(c3cccc4c3OC(C)(c3ccc(C(F)(F)F)cn3)O4)CC1)n2C[C@@H]1CCO1 (stereo partly drawn) [Compound 67, 4-(methoxy-d3)-2-((4-(2-methyl-2-(5-(trifluoromethyl)pyridin-2-yl)benzo[d][1,3]dioxol-4-yl)piperidin-1-yl)methyl)-1-(((S)-oxetan-2-yl)methyl)-1H-benzo[d]imidazole-6-carboxylic acid]",0.0141 nM,,> 40000 nM

# Continued, in another order:
EC50 (human GLP-1 receptor; [1]),EC50 (human GLP-1 receptor; [2]),SMILES,IC50 (hERG potassium channels)
,0.0327 nM,"O=C(O)c1ccc2nc(CN3CCC(c4cccc(OCc5ccc(Cl)cc5F)n4)CC3)n(C[C@@H]3CCO3)c2c1 [WO2018109607 , Example 3A-01, reference compound]",
,0.0289 nM,"O=C(O)c1ccc2nc(CN3CCN(c4cccc(OCc5ccc(Cl)cc5F)n4)CC3)n(C[C@@H]3CCO3)c2c1 [WO2018109607 , Example 10A-08, reference compound]",
,0.022 nM,"CC1(c2ccc(Cl)cc2F)Oc2cccc(C3CCN(Cc4nc5ccc(C(=O)O)cc5n4C[C@@H]4CCO4)CC3)c2O1 (some centres unmarked) [WO2019239319 , Example 7, reference compound]",
,0.0458 nM,"O=C(O)c1ccc2nc(CN3CCC(c4cccnc4OCc4ccc(Cl)cc4F)CC3)n(C[C@@H]3CCO3)c2c1 [WO2019239371 , Example 1, reference compound]",
,0.0261 nM,"N#Cc1ccc(COc2cccc(C3CCN(Cc4nc5c(F)cc(C(=O)O)cc5n4C[C@@H]4CCO4)CC3)n2)c(F)c1 [WO2022109182 , Example 21, reference compound]",
